Where two headings read alike, the source gives them in different places. Marks after values point to notes of the source that are not given here.
How the values were obtained:
Abcb1a [1] = molecular target: T1, Abcb1a (Mus musculus, UniProt P21447); experiment: Bidirectional transport assay in Abcb1a-transfected LLC cells (LLC-Abcb1a) without/with tariquidar; conditions: for IC50: normalized TR over 6 h, estimated by sigmoidal fit
Method: LLC-PK1 cells transduced with human MDR1 (LLC-ABCB1) or murine Mdr1a (LLC-Abcb1a) were kindly provided by Prof. P. Borst and Dr. A. Schinkel (The Netherlands Cancer Institute, Amsterdam, The Netherlands).
(§1) Tariquidar or solvent was added to both compartments. […] To determine membrane integrity, transepithelial electrical resistance (TEER) and, in representative wells, [^14C]mannitol diffusion were measured with criteria for exclusion described earlier.[27]
(§2) Apparent substrate permeability (Papp) from the basolateral to the apical compartment (b–A) and vice versa (a–B) was calculated using the following equation: [drawing 1] where dQ/dt (disintegration/min) is the permeability rate of the substrate into the sample compartment, A the growth area of the monolayer, and C0 the initial substrate concentration in the donor compartment. The transport ratio (TR) was calculated by dividing Papp(b–A) by Papp(a–B). […] With Prism6 software (GraphPad Software, La Jolla, CA, USA) a sigmoidal model with variable slope was used to analyze concentration–response relationships by nonlinear regression.

ABCB1 [2] = molecular target: T2, ABCB1 (Homo sapiens, UniProt P08183)
LLC wild-type cells = LLC wild-type cells (data not shown)
Method: as §1, §2

Abcb1a [3] = molecular target: T1, Abcb1a; experiment: PET imaging of radiotracer brain distribution (Kb,brain) in C57BL/6N wild-type, Abcb1a/1b(−/−) and Abcb1a/1b(+/−) mice and tariquidar concentration–response
Method: (§3) Animal respiratory rate and body temperature were constantly monitored (SA Instruments Inc., Stony Brook, NY, USA), and the isoflurane level was adjusted (1.5–2% in oxygen) to achieve a constant and sufficient depth of anesthesia. Anesthesia was maintained for the whole pretreatment and imaging period. Following administration, anatomical magnetic resonance imaging (MRI) was performed on a 1 T benchtop MRI (ICON, Bruker BioSpin GmbH, Ettlingen, Germany) using a modified 3D T1-weighted gradient echo sequence (T1-FLASH) and the following imaging parameters: echo time (TE) = 4.7 ms; repetition time (TR) = 27 ms; flip angle (FA) = 25°; field of view (FOV) = 7.6 × 2.6 × 2.4 cm; matrix = 380 × 130; 32 slices; slice thickness = 750 μm; total imaging time = 22 min. Following MRI, the animal bed was transferred into the gantry of a microPET scanner (Focus 220, Siemens Medical Solutions, Knoxville, TN, USA), and a 10 min transmission scan using a ^57Co point source was recorded.
(§4) After completion of the imaging procedure, a terminal blood sample was withdrawn under isoflurane anesthesia from the retro-orbital sinus vein, and the animals were sacrificed by cervical dislocation. Blood was centrifuged (17000g, 4 °C, 4 min) to obtain plasma, and whole brains were removed. […] The measured radioactivity data were corrected for radioactive decay and expressed as standardized uptake value ((radioactivity per g/injected radioactivity) × body weight). The remainder of the plasma samples was stored at −80 °C until measurement of tariquidar plasma concentrations using a previously described combined liquid chromatography tandem mass spectrometry (LC/MS) assay.[17]
(§5) Images were reconstructed using Fourier rebinning of the 3D sonograms followed by two-dimensional filtered back projection with a ramp filter, resulting in an image voxel size of 0.4 × 0.4 × 0.796 mm^3. A standard data correction protocol (normalization, attenuation, and decay correction) was applied to the PET data. The PET units were converted into units of radioactivity concentration by applying a calibration factor derived from imaging of a cylindrical phantom with a known ^11C-radioactivity concentration. Using the image analysis software Amide,[31] whole brain was manually outlined on the PET images, and time–activity curves, expressed in standardized uptake value, were derived.
(§6) Concentration–response relationships were analyzed by nonlinear regression analysis based on a sigmoidal model with variable slope using Prism 6 software.

human plasma [4] = system: human plasma; set-up: method as in PMID 23340958; conditions: human plasma ref 38; cited from earlier work
[5] = Tariquidar plasma concentration at the end of the PET scan (LC/MS); format: in vivo, mouse; conditions: 30 mg/kg iv
ABCB1 [6] = molecular target: T2, ABCB1; experiment: cell-based; conditions: ABCB1-transfected LLC cells, normalized TR over 6 h, estimated by sigmoidal fit
ABCB1 [7] = molecular target: T2, ABCB1; conditions: cited from earlier work
ABCB1 [8] = system: ABCB1; set-up: method as in PMID 20016890; conditions: rats ref 35; read-out: in vivo IC50 of tariquidar for enhancement of brain distribution of (R)-[11C]verapamil; cited from earlier work
Abcb1a [9] = experiment: PET imaging of radiotracer brain distribution (Kb,brain) in C57BL/6N wild-type, Abcb1a/1b(−/−) and Abcb1a/1b(+/−) mice and tariquidar concentration–response
Method: as §3, §4, §5, §6

human plasma [10] = experiment: Plasma protein binding (ultrafiltration) in human plasma; format: in vitro ADME; conditions: without tariquidar
Method: (§7) After incubation, plasma aliquots (200 μL) were transferred to the preconditioned Amicon filters, which were centrifuged (12000g, 30 min, 25 °C). Filters and tubes were separately measured in a gamma counter, and the obtained data were decay corrected. Percent plasma protein binding was calculated as percent radioactivity in the filter relative to total radioactivity (filter and tube).

Abcb1a/1b = Abcb1a/1b (Mus musculus, UniProt P21447); conditions: for Kp,brain: wild-type FVB/N mice, 25 min after injection
Method: Blood and brain were transferred to preweighed tubes and measured for radioactivity in a gamma counter. The measured radioactivity data were corrected for radioactive decay, and Kb,brain values were calculated.

C57BL/6N mouse plasma = experiment: Plasma protein binding (ultrafiltration) in mouse plasma; format: in vitro ADME
Method: as §7

Abcb1a [11] = molecular target: T1, Abcb1a; conditions: for Kp,brain,VPM or Kp,brain,dLOP fold increase, tariquidar vs vehicle: metabolite corrected; for Kp,brain for unchanged parent tracer (Kp,brain,VPM or Kp,brain,dLOP): 25 min, corrected for radiolabeled metabolites
Method: (§8) In one cohort, all procedures were performed in isoflurane anesthetized (1.5–2% in oxygen) animals resulting in a total anesthesia length of 160 min (= long anesthesia). In the second cohort, pretreatment and radiotracer injection were performed in awake animals which were only shortly anesthetized prior to retro-orbital blood sampling, resulting in a total anesthesia length of 5 min (= short anesthesia). […] Blood was centrifuged to obtain plasma, and whole brains were removed. To plasma and homogenized brain tissue were added unlabeled verapamil (10 mg/mL in water, 100 μL) or N-desmethyl-loperamide (10 mg/mL in water/acetonitrile; 1/1, v/v, 100 μL), and proteins were precipitated by the addition of acetonitrile (1 μL per μL of plasma and 0.5 mL per brain). The homogenates were vortexed and then centrifuged (12000g, 5 min, 21 °C). Each supernatant (plasma, brain, 3 μL each) and diluted radiotracer solution as reference were spotted on thin-layer chromatography (TLC) plates (silica gel 60F 254 nm, 20 × 20 cm; Merck, Darmstadt, Germany), and plates were developed in ethyl acetate/triethylamine (9/1, v/v). Detection was performed by placing the TLC plates on multisensitive phosphor screens (PerkinElmer Life Sciences, Waltham, MA). The screens were scanned at 300 dpi resolution using a PerkinElmer Cyclone Plus Phosphor Imager (PerkinElmer Life Sciences).

[12] = short anesthesia (5 min), tariquidar 15 mg/kg, 25 min after injection
Method: as §8

T2 sequence (P08183 whole entry): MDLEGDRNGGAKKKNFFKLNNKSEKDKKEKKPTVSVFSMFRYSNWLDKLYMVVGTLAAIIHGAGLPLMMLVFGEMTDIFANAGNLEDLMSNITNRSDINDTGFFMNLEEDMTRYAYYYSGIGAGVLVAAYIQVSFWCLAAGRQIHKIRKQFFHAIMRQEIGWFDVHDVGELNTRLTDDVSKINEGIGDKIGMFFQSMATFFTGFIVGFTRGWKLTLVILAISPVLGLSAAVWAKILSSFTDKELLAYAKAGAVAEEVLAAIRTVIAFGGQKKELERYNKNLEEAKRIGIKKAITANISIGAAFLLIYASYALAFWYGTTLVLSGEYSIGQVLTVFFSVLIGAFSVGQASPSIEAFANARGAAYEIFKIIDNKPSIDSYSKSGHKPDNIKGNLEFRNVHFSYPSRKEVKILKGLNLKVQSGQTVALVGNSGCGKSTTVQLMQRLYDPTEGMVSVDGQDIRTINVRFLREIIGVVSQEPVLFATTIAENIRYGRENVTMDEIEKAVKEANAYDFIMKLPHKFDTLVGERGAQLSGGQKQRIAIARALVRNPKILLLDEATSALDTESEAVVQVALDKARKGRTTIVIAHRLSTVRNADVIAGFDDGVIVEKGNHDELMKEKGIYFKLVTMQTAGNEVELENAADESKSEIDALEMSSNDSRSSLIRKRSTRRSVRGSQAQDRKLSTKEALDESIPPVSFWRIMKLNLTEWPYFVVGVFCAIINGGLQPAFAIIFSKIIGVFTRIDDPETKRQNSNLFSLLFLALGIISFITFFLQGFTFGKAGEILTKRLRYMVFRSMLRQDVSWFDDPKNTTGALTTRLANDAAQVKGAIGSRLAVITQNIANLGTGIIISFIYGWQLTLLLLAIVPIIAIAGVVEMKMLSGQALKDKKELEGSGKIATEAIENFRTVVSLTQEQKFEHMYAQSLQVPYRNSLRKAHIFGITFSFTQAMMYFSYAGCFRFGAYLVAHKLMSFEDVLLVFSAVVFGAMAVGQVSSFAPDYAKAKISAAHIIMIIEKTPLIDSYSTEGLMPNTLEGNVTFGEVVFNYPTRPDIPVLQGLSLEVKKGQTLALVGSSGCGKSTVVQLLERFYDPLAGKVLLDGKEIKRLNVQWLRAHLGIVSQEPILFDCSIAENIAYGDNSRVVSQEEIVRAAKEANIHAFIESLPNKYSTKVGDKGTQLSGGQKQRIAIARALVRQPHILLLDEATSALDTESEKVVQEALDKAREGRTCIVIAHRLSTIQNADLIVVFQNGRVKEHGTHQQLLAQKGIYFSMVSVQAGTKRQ
Chain of Abcb1a/1b (P21447 whole entry): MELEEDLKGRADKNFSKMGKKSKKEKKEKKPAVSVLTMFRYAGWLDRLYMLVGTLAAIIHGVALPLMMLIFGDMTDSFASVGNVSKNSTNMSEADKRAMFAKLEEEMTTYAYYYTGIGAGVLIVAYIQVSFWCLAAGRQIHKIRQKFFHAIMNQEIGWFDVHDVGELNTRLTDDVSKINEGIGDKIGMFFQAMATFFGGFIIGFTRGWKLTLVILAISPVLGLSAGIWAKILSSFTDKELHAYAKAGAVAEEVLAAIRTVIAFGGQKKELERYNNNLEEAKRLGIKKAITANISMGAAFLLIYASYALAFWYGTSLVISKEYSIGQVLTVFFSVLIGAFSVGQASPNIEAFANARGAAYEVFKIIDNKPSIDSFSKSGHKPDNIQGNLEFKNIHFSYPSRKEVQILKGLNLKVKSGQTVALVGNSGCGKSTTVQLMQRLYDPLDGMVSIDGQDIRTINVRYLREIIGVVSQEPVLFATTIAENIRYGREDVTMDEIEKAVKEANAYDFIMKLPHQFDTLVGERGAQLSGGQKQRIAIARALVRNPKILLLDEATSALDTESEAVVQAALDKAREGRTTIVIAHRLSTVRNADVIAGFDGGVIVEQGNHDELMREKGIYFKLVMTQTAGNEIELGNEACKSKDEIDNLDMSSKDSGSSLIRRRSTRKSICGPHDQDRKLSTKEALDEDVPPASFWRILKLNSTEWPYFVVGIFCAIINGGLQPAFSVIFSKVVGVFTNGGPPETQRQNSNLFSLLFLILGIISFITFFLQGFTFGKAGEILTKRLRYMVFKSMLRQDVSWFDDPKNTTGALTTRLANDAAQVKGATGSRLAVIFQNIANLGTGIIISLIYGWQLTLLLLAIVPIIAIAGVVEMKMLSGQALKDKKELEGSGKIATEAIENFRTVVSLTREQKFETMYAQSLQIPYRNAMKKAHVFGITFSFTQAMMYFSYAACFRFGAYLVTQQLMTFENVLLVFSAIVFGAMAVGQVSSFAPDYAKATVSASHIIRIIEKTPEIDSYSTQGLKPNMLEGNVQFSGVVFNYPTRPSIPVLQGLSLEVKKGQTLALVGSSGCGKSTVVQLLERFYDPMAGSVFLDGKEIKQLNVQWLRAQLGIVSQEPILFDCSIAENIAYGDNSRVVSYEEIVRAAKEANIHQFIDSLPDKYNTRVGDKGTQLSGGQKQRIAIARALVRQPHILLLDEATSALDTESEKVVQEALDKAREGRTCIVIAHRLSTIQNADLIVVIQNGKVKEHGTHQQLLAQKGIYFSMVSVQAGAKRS
T1 sequence (P21447 whole entry): as above

[3H]C([3H])([3H])NC(=O)C(CCN1CCC(O)(c2ccc(Cl)cc2)CC1)(c1ccccc1)c1ccccc1 [[^3H]-N-desmethyl-loperamide]
transport ratio (TR), Papp(b–A)/Papp(a–B) (Abcb1a [1]; Abcb1a-transfected LLC cells, 5 nM substrate, without tariquidar): 27.6 ± 6.5 | TR relative to TR of [3H]verapamil (Abcb1a [1]; Abcb1a-transfected cells): 8.6 times | transport ratio (TR), Papp(b–A)/Papp(a–B) (ABCB1 [2]; ABCB1-transfected LLC cells, 5 nM substrate, without tariquidar): 18.5 ± 1.7 | TR relative to TR of [3H]verapamil (ABCB1 [2]; ABCB1-transfected cells): 5 times | transport ratio relative to [3H]verapamil (ABCB1 [2]; in ABCB1- and Abcb1a-transfected cells (both cell types)): 5 to 9 times | transport ratio (TR) (LLC wild-type cells): 1.6 ± 0.03

COc1cc2c(cc1OC)CN(CCc1ccc(NC(=O)c3cc(OC)c(OC)cc3NC(=O)c3cnc4ccccc4c3)cc1)CC2 [tariquidar]
IC50 (Abcb1a [3]): 1330 nM | Hill slope, Kb,brain of (R)-[11C]verapamil vs tariquidar plasma concentration (Abcb1a [3]; C57BL/6N wild-type mice): 2.98 | Hill slope, Kb,brain of [11C]-N-desmethyl-loperamide vs tariquidar plasma concentration (Abcb1a [3]; C57BL/6N wild-type mice): 1.44 | IC50 (Abcb1a [3]; in vivo IC50 of tariquidar (plasma concentration) for increase in Kb,brain of (R)-[11C]verapamil, C57BL/6N wild-type mice, normalized to Abcb1a/1b(−/−) mice): 1050 nM | IC50 (Abcb1a [3]; unbound tariquidar in vivo IC50, (R)-[11C]verapamil, mice, in vivo IC50 corrected for plasma protein binding of tariquidar): 6.6 nM | IC50 (Abcb1a [3]; unbound tariquidar in vivo IC50, [11C]-N-desmethyl-loperamide, mice, in vivo IC50 corrected for plasma protein binding of tariquidar): 8.4 nM | Hill slope, inhibition of [3H]-N-desmethyl-loperamide transport (Abcb1a [1]; Abcb1a-transfected cells): 1.3 | Hill slope, inhibition of [3H]verapamil transport (Abcb1a [1]; Abcb1a-transfected cells): 2.6 | IC50 (Abcb1a [1]; IC50 of tariquidar for inhibition of [3H]-N-desmethyl-loperamide transport, Abcb1a-transfected LLC cells): 6 nM | IC50 (Abcb1a [1]; IC50 of tariquidar for inhibition of [3H]verapamil transport, Abcb1a-transfected LLC cells): 17.9 nM | unbound fraction in human plasma (human plasma [4]): 0.0063 | Hill slope, inhibition of [3H]-N-desmethyl-loperamide transport (ABCB1 [2]; ABCB1-transfected cells): 2.1 | Hill slope, inhibition of [3H]verapamil transport (ABCB1 [2]; ABCB1-transfected cells): 10.8 | tariquidar plasma concentration (mean ± SD) [5]: 3.508 ± 0.427 µM | tariquidar plasma concentration (range) [5]: 2802 to 3863 nM | IC50 (ABCB1 [6]; IC50 of tariquidar for inhibition of [3H]-N-desmethyl-loperamide transport): 9 nM | IC50 (ABCB1 [6]; IC50 of tariquidar for inhibition of [3H]verapamil transport): 17.2 nM | IC50 (ABCB1 [7]; read-out: in vivo IC50 of tariquidar for enhancement of brain distribution of (R)-[11C]verapamil, humans ref 19): 2250 nM | IC50 (ABCB1 [8]): 650 nM

CNC(=O)C(CCN1CCC(O)(c2ccc(Cl)cc2)CC1)(c1ccccc1)c1ccccc1 [[^11C]-N-desmethyl-loperamide]
blood radioactivity concentrations after tariquidar pretreatment compared to vehicle (Abcb1a [9]; C57BL/6N wild-type mice, end of PET scan): increased | increase in Kb,brain over vehicle treated wild-type mice (Abcb1a [9]; homozygous Abcb1a/1b(−/−) mice): 2.8 fold | brain-to-blood concentration ratio (Kb,brain) (Abcb1a [9]; vehicle treated homozygous Abcb1a/1b(−/−) mice): 3.93 ± 0.36 | brain-to-blood concentration ratio (Kb,brain) (Abcb1a [3]; heterozygous Abcb1a/1b(+/−) mice): 1.54 ± 0.19 | increase in Kb,brain over vehicle treated wild-type mice (Abcb1a [3]; heterozygous Abcb1a/1b(+/−) mice, not significant): 1.1 fold | brain-to-blood concentration ratio (Kb,brain) (Abcb1a [3]; vehicle treated C57BL/6N wild-type mice, end of PET scan (50–60 min), total radioactivity): 1.42 ± 0.16 | brain-to-blood concentration ratio (Kb,brain) (Abcb1a [3]; wild-type mice after 30 mg/kg tariquidar iv 2 h before PET): 2.58 ± 0.44 | percentage of non-protein bound radiotracer (human plasma [10]): 13.9 ± 0.7% | Kb,brain fold increase, Abcb1a/1b(−/−) vs wild-type (Abcb1a/1b; awake): 13.8 fold | Kp,brain fold increase, Abcb1a/1b(−/−) vs wild-type (Abcb1a/1b; awake): 13.7 fold | Kp,brain (Abcb1a/1b; awake): 0.20 ± 0.05 | Kb,brain fold increase, Abcb1a/1b(−/−) vs wild-type (Abcb1a/1b; isoflurane): 5.7 fold | Kp,brain fold increase, Abcb1a/1b(−/−) vs wild-type (Abcb1a/1b; isoflurane): 6.0 fold | Kp,brain (Abcb1a/1b; isoflurane): 0.20 ± 0.04 | percentage of non-protein bound radiotracer (C57BL/6N mouse plasma; with tariquidar (2400 nM)): 12.0 ± 1.0% | percentage of non-protein bound radiotracer (C57BL/6N mouse plasma; without tariquidar): 14.5 ± 1.8% | Kb,brain fold increase, tariquidar vs vehicle (Abcb1a [11]; long anesthesia (160 min)): 4.0 fold | Kp,brain fold increase, tariquidar vs vehicle (Abcb1a [11]; long anesthesia (160 min)): 3.7 fold | Kp,brain,VPM or Kp,brain,dLOP fold increase, tariquidar vs vehicle (Abcb1a [11]; long anesthesia (160 min)): 18.3 fold | Kp,brain for unchanged parent tracer (Kp,brain,VPM or Kp,brain,dLOP) (Abcb1a [11]; long anesthesia (160 min), tariquidar 15 mg/kg): 7.34 ± 0.58 | Kp,brain for unchanged parent tracer (Kp,brain,VPM or Kp,brain,dLOP) (Abcb1a [11]; long anesthesia (160 min), vehicle): 0.40 ± 0.16 | Kb,brain fold increase, tariquidar vs vehicle (Abcb1a [11]; short anesthesia (5 min)): 7.0 fold | Kp,brain fold increase, tariquidar vs vehicle (Abcb1a [11]; short anesthesia (5 min)): 6.6 fold | Kp,brain,VPM or Kp,brain,dLOP fold increase, tariquidar vs vehicle (Abcb1a [11]; short anesthesia (5 min)): 9.6 fold | Kp,brain for unchanged parent tracer (Kp,brain,VPM or Kp,brain,dLOP) (Abcb1a [11]; short anesthesia (5 min), tariquidar 15 mg/kg): 4.85 ± 0.29 ^b | Kp,brain for unchanged parent tracer (Kp,brain,VPM or Kp,brain,dLOP) (Abcb1a [11]; short anesthesia (5 min), vehicle): 0.51 ± 0.18 | percentage of unchanged radiotracer in brain [12]: 70 ± 11% | percentage of unchanged radiotracer in plasma [12]: 18 ± 1% | percentage of unchanged radiotracer in plasma ([12]; listed as [^11C]-N-Desmethyl-loperamide): 18 ± 1 ^d % | increase in distribution to the human brain following administration of tariquidar (ABCB1 [7]; humans, compared with PET scans without tariquidar ref 18-21): 2 to 5 times
